From patent US10718028B2, “Fluorescent probes for abasic site detection” (CASE WESTERN RESERVE UIVERSITY, priority 2015, dated 2020)
“Also recorded” adds a separate entry of the source.

Key:
[1] = Fluorescence and absorbance properties of Cy7MX in various solvents (Example 1); type: physicochemical
Protocol: NMR spectra were recorded on a Varian Mercury 300 MHz, a Varian Inova 400, and a Varian Inova 600 MHz spectrometer at room temperature, except where otherwise noted. Chemical shifts for 1H NMR were reported as 6, parts per million, and referenced to CHCl3 at 7.26 ppm or TMS at 0 ppm. Chemical shifts for ^13C NMR were reported as 6 and referenced to the center line of the CDCl3 triplet at 77.0 ppm or CH2Cl2 pentet at 54.0 ppm. Low resolution mass spectra were recorded on a ThermoScientific LCQ Advantage or a Finnigan LCQ Deca mass spectrometer. Fluorescence data were collected on a Varian Cary Eclipse fluorescence spectrophotometer in a quartz cuvette with a 1 cm pathlength or on a Tecan Infinite M200 scanner. Absorbance data were collected on a Varian Cary 50 Bio UV-Visible Spectrophotometer in a quartz cuvette with a 1 cm path length.
Fluorescent quantum yields were determined by a comparative method to an indocyanine green (ICG) standard (Φ=0.132 in EtOH) with refractive index correction according to Equation 1:
[formula] • where Φ is the quantum yield; F is the integrated fluorescence intensity (area); A is the absorbance; n is the refractive index of the solvent (ethanol, 1.3611; acetonitrile, 1.3442; water, 1.333; and chloroform, 1.4459); and R is the reference sample, ICG in EtOH. Sample and reference fluorophores were excited at 700 nm and emission spectra integrated from 705 to 1000 nm and absorption measurements were collected at 700 nm. Data were collected in a quartz cuvette with a 1 cm pathlength. Absorbance maxima for each sample were kept at or below 0.2 absorbance units to avoid inner filter effects. Solvents used were spectroscopic grade ethanol and HPLC grade acetonitrile, HPLC grade chloroform, and HPLC grade water. For the water solution, Cy7MX was first dissolved first in MeCN and diluted at least 200 fold. Synthesis of Compounds for AP Site Detection
Further characterization was conducted for Cy7MX (Table 2), Cy7MX, because it was chosen for extensive investigation in biological studies. The absorption and emission spectra were collected in polar protic (water and ethanol), polar aprotic (acetonitrile), and relatively nonpolar (chloroform) solvents. […] The extinction coefficient and the fluorescence quantum yields for Cy7MX compared favorably to other heptamethine cyanine dyes.

[2] = test system: AP DNA; test: SSB activity assay, dose-response of AP site binding probes; type: biochemical; conditions: 5 pmol AP DNA, FIG. 1
Protocol: FIG. 1 illustrates SSB activity assay is used to compare the dose-response of AP site binding probes in 5 pmol of AP DNA. Mean and standard deviation of triplicate samples are shown for each concentration.
The single strand break (SSB) assay was proposed as a quick, facile tool to screen AP site binding probes. Therefore, the assay was performed on novel AP site binding probes described above and the commercially available AP site binding probe, F422. […] The reduced response of F422 and DansylMX may be due in part to the compounds being fairly electron rich near the aminooxy binding moiety. This could lead to a Coulombic repulsion with the DNA phosphate backbone.
SSB activity assays were performed on a 40-mer duplex DNA synthesized by IDT with the sequence:
SSB Activity Assay Control Reactions

[3] = test system: DLD1 WT cells; test: MMS treatment, isolation, and Cy7MX analysis of DLD1 DNA; type: cell-based; conditions: 3 h MMS exposure, 1 h Cy7MX
Protocol: DLD1 shControl (WT) cells at a density of 3 million cells per dish were plated in Falcon brand 100×20 mm cell culture dishes in 10 mL medium (DMEM supplemented with 10% heat inactivated FBS, penicillin/streptomycin, and nonessential amino acids) and incubated 16 h at 37° C. and 5% CO2 to ensure adhesion. Solutions of MMS were prepared in serum free DMEM medium at concentrations of 0.05, 0.25, 1, 4, and 10 mM. Medium was removed from the cells and replaced with the MMS or a serum free medium vehicle. Three plates were prepared per treatment group. Cells were incubated at 37° C. and 5% CO2 with continuous MMS exposure for 3 h. At the time points, cells were collected and DNA isolated as described above (Treatment of DLD1 cells with FUDR).
Pure DNA pellets were suspended in 190 μL water. A solution of Cy7MX (10 μL, final=25 μM) was added to each sample, keeping the stock solution and all treated samples vigorously in the dark until the final analysis. Samples were incubated with Cy7MX for 1 h at 37° C. in the dark. After incubation, DNA was purified and analyzed as described above.
Methyl methanesulfonate (MMS) is a methylating agent used to induce AP sites in cells. An MMS dose-response in DLD1 WT cells was performed for a 3 h treatment time. […] Fluorescence was measured following ethanol precipitation purification.

[4] = biological target: T1, APE (Homo sapiens, UniProt P27695); test: SSB activity assay APE inhibition; type: biochemical
T1 construct: purchased New England BioLabs
Protocol: FIG. 7 illustrates the evaluation of APE inhibition by Cy7MX. […] APE is inhibited about 50% after 3 h incubation. The baseline reduction in cutting is due to competition of APE and Cy7MX for the AP-DNA substrate.
Meanwhile, five samples of each DNA reaction were prepared.
We determined if Cy7MX could inhibit the activity of the enzymes and thereby complicate the results on the assay. While the order of reagent addition in the assay may be structured to avoid enzyme inhibition, Cy7MX is envisioned as an imaging agent in living cells where the enzymes are constantly present. To test the possible inhibition of Cy7MX towards APE, the probe and enzyme were incubated together for a variable period of time then incubated for a fixed period of time with AP DNA (U:A DNA pretreated with UDG). If the two species were only competing for substrate, then the extent of cutting observed would be independent of the APE+Cy7MX incubation time. Conversely, if Cy7MX inhibits the action of APE, then the extent of cutting would vary as a function of APE+Cy7MX incubation time. In either case, some baseline reduction in cutting was expected as Cy7MX and APE competed for substrate. […] However, this effect was only observed after 60 minutes. Thus, the one hour incubation of APE in the cutting assay is not expected to be negatively impacted by the presence of Cy7MX.

T1 sequence (P27695 whole entry): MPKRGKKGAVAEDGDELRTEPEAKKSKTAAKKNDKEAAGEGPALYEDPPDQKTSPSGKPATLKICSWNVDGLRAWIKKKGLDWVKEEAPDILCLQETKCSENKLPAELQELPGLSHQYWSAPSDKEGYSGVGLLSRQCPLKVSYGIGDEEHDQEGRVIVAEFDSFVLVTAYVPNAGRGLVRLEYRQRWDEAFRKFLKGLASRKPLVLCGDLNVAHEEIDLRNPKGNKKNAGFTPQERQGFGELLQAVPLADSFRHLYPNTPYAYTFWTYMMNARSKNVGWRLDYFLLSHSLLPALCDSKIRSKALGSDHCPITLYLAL

Which results are given for `CCCN1/C(=C/C=C2\CCCC(/C=C/C3=[N+](CCC)c4ccccc4C3(C)C)=C2Oc2ccc(CC(=O)NCCCON)cc2)C(C)(C)c2ccccc21` [Cy7MX, 2-((E)-2-((E)-2-(4-(2-((3-(aminooxy)propyl)amino)-2-oxoethyl)phenoxy)-3-((E)-2-(3,3-dimethyl-1-propylindolin-2-ylidene)ethylidene)cyclohex-1-en-1-yl)vinyl)-3,3-dimethyl-1-propyl-3H-indol-1-ium 2,2,2-trifluoroacetate]?
Φ ([1]; CHCl3): 32.6%; λabs ([1]; CHCl3): 770 nm; λem ([1]; CHCl3): 791 nm; Φ ([1]; EtOH): 36.3%; ε ([1]; EtOH): 127,000 M^−1cm^−1; λabs ([1]; EtOH): 770 nm; λem ([1]; EtOH): 796 nm; Φ ([1]; H2O): 6.3%; ε ([1]; H2O): 140,000 M^−1cm^−1; λabs ([1]; H2O): 767 nm; λem ([1]; H2O): 790 nm; Φ ([1]; MeCN): 45.9%; ε ([1]; MeCN): 154,000 M^−1cm^−1; λabs ([1]; MeCN): 767 nm; λem ([1]; MeCN): 789 nm; solvatochromism ([1]; water, ethanol, acetonitrile, chloroform): No solvatochromism was observed; dose-response and overall efficacy in SSB assay [2]: acceptable dose-response and overall efficacy; detection of AP sites in DNA of MMS treated cells [3]: sensitive to the quantity of AP sites induced by mM concentrations of MMS; APE inhibition ([4]; 60 min APE incubation): no detectable inhibition; APE inhibition ([4]; APE and Cy7MX incubated together before addition of AP-DNA, variable time, 2,2,2-trifluoroacetate): did have inhibitory effects on APE; also recorded: mild inhibition; APE inhibition ([4]; after 3 h incubation of APE with Cy7MX): about 50%; APE inhibition ([4]; tetrahydrofuran (THF) base in place of the AP site): moderate inhibition of APE
